IC50 data for 23 compounds are collected here from patent publication US12325697B2 (Nimbus Clio, Inc., priority 2021, dated 2025).

Recombinant human Cbl-b (aa 36-427), sequence (Q13191 36-427): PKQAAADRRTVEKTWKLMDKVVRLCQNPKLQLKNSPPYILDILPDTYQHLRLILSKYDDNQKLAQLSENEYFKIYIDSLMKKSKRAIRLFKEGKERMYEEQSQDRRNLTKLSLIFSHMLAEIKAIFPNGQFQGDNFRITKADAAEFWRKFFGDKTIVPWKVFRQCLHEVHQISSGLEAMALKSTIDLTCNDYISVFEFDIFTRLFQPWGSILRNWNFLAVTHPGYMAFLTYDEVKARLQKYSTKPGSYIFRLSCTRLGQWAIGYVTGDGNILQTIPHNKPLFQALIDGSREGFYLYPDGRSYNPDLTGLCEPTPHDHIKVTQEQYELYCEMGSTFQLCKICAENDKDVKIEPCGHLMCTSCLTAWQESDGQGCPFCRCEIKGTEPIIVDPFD

This assay addresses Recombinant human Cbl-b (aa 36-427) (Homo sapiens (Human), UniProt Q13191). The assay can be described thus: Cbl-b Biochemical Assay (TR-FRET). Conditions: read-out: TR-FRET hCbl-b IC50. The method, then:
Recombinant human Cbl-b (aa 36-427) was expressed in E. coli, purified and biotinylated in vitro. The protein was diluted to 12 nM in freshly prepared assay buffer consisting of 50 mM HEPES, pH 7.0, 100 mM NaCl, 5 mM MgCl2, 0.01% Triton-X 100, 0.01% BSA and 1 mM DTT. Recombinant human Src (aa 254-536)-[…]-Zap-70 (aa 281-297) fusion protein was expressed in E. coli and purified. Protein was diluted in assay buffer to 2-5 nM and supplemented with ATP to 1 mM. Fluorescein-BODIPY labeled UBE[…]([…])-Ub was prepared by conjugating ubiquitin (Ub) labeled at its N-terminus with Fluorescein-BODIPY maleimide (ThermoFisher Catalog no B10250) to E. coli expressed and purified UBE[…]([…]) [see Dou et al Nature Structural and Molecular Biology 8: 982-987, 2013]. Recombinant human UBE2D2([…]) was expressed in E. coli, purified and ubiquitinated and Bodipy labelled in vitro. Protein was diluted to 200 nM in assay buffer without MgCl2 (or Cisbio PPI buffer). Streptavidin-Terbium was added to 2 nM and EDTA to 10 mM, to provide a binding assay mix. Compounds were dissolved in DMSO and diluted to prepare a ten-point dilution series. 100 nl of each compound concentration was dispensed in duplicate in a 384 well black assay plate using acoustic dispensing. Wells for maximum signal controls received 100 nl of DMSO only and wells for minimum signal controls received 100 nl of a reference inhibitor compound at a final assay concentration of […] to produce 100% inhibition. 5 μl of diluted Cbl-b enzyme was added to all wells of the assay plate and incubated at RT for 30-60 min. The enzyme assay was initiated by addition of 5 μl of Src-Zap/ATP mix to all wells, and the plate incubated at RT for 60 min. The enzyme reaction was terminated and the binding reaction was initiated by adding 10 μl of binding assay mix to all wells and incubating the plate at RT for 60 min prior to assay read. Final assay conditions consisted of 6 nM Cbl-b, 1-2.5 nM Src-Zap70, 0.5 mM ATP, 1% (v/v) DMSO (enzyme reaction) and 100 nM UBE2D2([…])-Ub-FL-BODIPY, 5 mM EDTA, 1 nM Streptavidin-Tb (binding reaction). The HTRF assay signal was measured at 520 nm on an Envision plate reader, with reference signal at 485 or 620 nm. Data was normalized using maximum and minimum assay controls: % Inhibition=100-(100*((maximum control)-unknown)/(maximum control-minimum control)). A 4-parameter dose-response equation was used to fit the normalized dose-response data and derive an IC50 for test compounds.
Background: TR-FRET usually uses a lanthanide donor and a delayed reading to cut background.
For orientation: IC50 means the midpoint of a concentration-inhibition curve. On to `CCNc1cc(-c2c(-c3nncn3C)cnn2C)cc(NC(=O)c2cc(CO)cc(C3CC3)n2)n1` [ABZ-7, 6-Cyclopropyl-N-(6-(ethylamino)-4-(1-methyl-4-(4-methyl-4H-1,2,4-triazol-3-yl)-1H-pyrazol-5-yl)pyridin-2-yl)-4-(hydroxymethyl) picolinamide], for which the IC50 is at most 200 nM.

Consider `Cn1cnnc1-c1ccccc1-c1cc(N2CCCC2)nc(N2Cc3c(cccc3C(F)(F)F)C2=O)c1` [AC-3], for which the half-inhibitory concentration (IC50) was in the range of 1000 to 10000 nM.

Consider `CCNc1cc(-c2c(-c3nncn3C)cnn2C)cc(N2Cc3c(cc(CN4CC[C@@H](F)C4)cc3C(F)(F)F)C2=O)n1` [ACA-1, (R)-2-(6-(Ethylamino)-4-(1-methyl-4-(4-methyl-4H-1,2,4-triazol-3-yl)-1H-pyrazol-5-yl)pyridin-2-yl)-6-((3-fluoropyrrolidin-1-yl)methyl)-4-(trifluoromethyl)isoindolin-1-one], for which the half-maximal inhibitory concentration (IC50) is at most 200 nM.

Regarding `CCNc1cc(-c2c(-c3nncn3C)cnn2C)cc(N2Cc3c(cc(CN4CC[C@H](F)C4)cc3C(F)(F)F)C2=O)n1` [ACB-1, (S)-2-(6-(Ethylamino)-4-(1-methyl-4-(4-methyl-4H-1,2,4-triazol-3-yl)-1H-pyrazol-5-yl)pyridin-2-yl)-6-((3-fluoropyrrolidin-1-yl)methyl)-4-(trifluoromethyl)isoindolin-1-one], the IC50 was at most 200 nM.

`Cn1cnnc1-c1cc(C#N)ccc1-c1cccc(N2Cc3c(cccc3C(F)(F)F)C2=O)c1` [ACC-8, 2-(4-Methyl-4H-1,2,4-triazol-3-yl)-3′-(1-oxo-4-(trifluoromethyl)isoindolin-2-yl)-[1,1′-biphenyl]-4-carbonitrile]: the IC50 is at most 200 nM.

Consider `Cn1cnnc1-c1cc(C(N)=O)ccc1-c1cccc(N2Cc3c(cccc3C(F)(F)F)C2=O)c1` [ACD-1, 2-(4-Methyl-4H-1,2,4-triazol-3-yl)-3′-(1-oxo-4-(trifluoromethyl)isoindolin-2-yl)-[1,1′-biphenyl]-4-carboxamide], for which the IC50 was in the range of 1000 to 10000 nM.

In the case of `CCNc1cc(-c2c(-c3nncn3C)cnn2C)cc(N2Cc3c(cc(CN4CCC[C@@H](C)C4)cc3C(F)(F)F)C2=O)n1` [ACE-1, (R)-2-(6-(Ethylamino)-4-(1-methyl-4-(4-methyl-4H-1,2,4-triazol-3-yl)-1H-pyrazol-5-yl)pyridin-2-yl)-6-((3-methylpiperidin-1-yl)methyl)-4-(trifluoromethyl) isoindolin-1-one], the IC50 is at most 200 nM.

For `CCNc1cc(-c2c(-c3nncn3C)cnn2C)cc(N2Cc3c(cc(CN4CCC[C@H](C)C4)cc3C(F)(F)F)C2=O)n1` [ACF-1, (S)-2-(6-(Ethylamino)-4-(1-methyl-4-(4-methyl-4H-1,2,4-triazol-3-yl)-1H-pyrazol-5-yl)pyridin-2-yl)-6-((3-methylpiperidin-1-yl)methyl)-4-(trifluoromethyl)isoindolin-1-one], the IC50 was at most 200 nM.

Turning to `CCNc1cc(-c2c(-c3nncn3C)cnn2C)cc(N2Cc3c(cc(CN)cc3C(F)(F)F)C2=O)n1` [ACG-3, 6-(Aminomethyl)-2-(6-(ethylamino)-4-(1-methyl-4-(4-methyl-4H-1,2,4-triazol-3-yl)-1H-pyrazol-5-yl)pyridin-2-yl)-4-(trifluoromethyl)isoindolin-1-one], the half-maximal inhibitory concentration (IC50) was at most 200 nM.

As for `CCNc1cc(-c2c(-c3nncn3C)cnn2C)cc(N2Cc3c(cc(CO)cc3C(F)(F)F)C2=O)n1` [ACH-1, 2-(6-(Ethylamino)-4-(1-methyl-4-(4-methyl-4H-1,2,4-triazol-3-yl)-1H-pyrazol-5-yl)pyridin-2-yl)-6-(hydroxymethyl)-4-(trifluoromethyl)isoindolin-1-one], the 50% inhibitory concentration (IC50) was at most 200 nM.

On to `CCNc1cc(-c2c(-c3nncn3C)cnn2C)cc(N2Cc3c(cc(CNCCO)cc3C(F)(F)F)C2=O)n1` [ACI-1, 2-(6-(Ethylamino)-4-(1-methyl-4-(4-methyl-4H-1,2,4-triazol-3-yl)-1H-pyrazol-5-yl)pyridin-2-yl)-6-(((2-hydroxyethyl)amino)methyl)-4-(trifluoromethyl)isoindolin-1-one], for which the 50% inhibitory concentration (IC50) was at most 200 nM.

Regarding `COC(=O)C1(c2cc(-c3ccccc3-c3nncn3C)cc(N3Cc4c(cccc4C(F)(F)F)C3=O)n2)CC1` [ACJ-6, Methyl 1-(4-(2-(4-methyl-4H-1,2,4-triazol-3-yl)phenyl)-6-(1-oxo-4-(trifluoromethyl)isoindolin-2-yl)pyridin-2-yl) cyclopropane-1-carboxylate], the IC50 fell in the range of 10000 to 50000 nM.

In the case of `Cn1cnnc1-c1ccccc1-c1cc(C2CC2)nc(N2Cc3c(cc(CO)cc3C(F)(F)F)C2=O)c1` [ACK-3, 2-(6-Cyclopropyl-4-(2-(4-methyl-4H-1,2,4-triazol-3-yl)phenyl)pyridin-2-yl)-6-(hydroxymethyl)-4-(trifluoromethyl)isoindolin-1-one], the IC50 was at most 200 nM.

As to `Cn1cnnc1-c1ccccc1-c1cc(C2CC2)nc(N2Cc3c(cc(CN4CCC5(CC5)C4)cc3C(F)(F)F)C2=O)c1` [ACL-1, 6-((5-Azaspiro [2.4]heptan-5-yl)methyl)-2-(6-cyclopropyl-4-(2-(4-methyl-4H-1,2,4-triazol-3-yl)phenyl)pyridin-2-yl)-4-(trifluoromethyl)isoindolin-1-one], the IC50 was at most 200 nM.

With `CCNc1cc(-c2ccc(F)cc2-c2nncn2C)cc(N2Cc3c(cccc3C(F)(F)F)C2=O)n1` [ACM-8, 2-(6-(Ethylamino)-4-(4-fluoro-2-(4-methyl-4H-1,2,4-triazol-3-yl)phenyl)pyridin-2-yl)-4-(trifluoromethyl)isoindolin-1-one], the half-inhibitory concentration (IC50) was at most 200 nM.

On to `CCNc1cc(-c2c(-c3nncn3C)cnn2C)cc(N2Cc3c(cc(OCCN4CCCC4)cc3C(F)(F)F)C2=O)n1` [ACN-5, 2-(6-(Ethylamino)-4-(1-methyl-4-(4-methyl-4H-1,2,4-triazol-3-yl)-1H-pyrazol-5-yl)pyridin-2-yl)-6-(2-(pyrrolidin-1-yl)ethoxy)-4-(trifluoromethyl)isoindolin-1-one], for which the concentration for half-maximal inhibition (IC50) was at most 200 nM.

On to `CCNc1cc(-c2c(-c3nncn3C)cnn2C)cc(N2Cc3c(cccc3C(F)(F)F)C2=O)n1` [ACO-1, 2-(6-(Ethylamino)-4-(1-methyl-4-(4-methyl-4H-1,2,4-triazol-3-yl)-1H-pyrazol-5-yl)pyridin-2-yl)-4-(trifluoromethyl)isoindolin-1-one], for which the IC50 is at most 200 nM.

On to `CCNc1cc(-c2c(-c3nncn3C)cnn2C)cc(N2Cc3c(cc(O)cc3C(F)(F)F)C2=O)n1` [ACQ-7, 2-(6-(Ethylamino)-4-(1-methyl-4-(4-methyl-4H-1,2,4-triazol-3-yl)-1H-pyrazol-5-yl)pyridin-2-yl)-6-hydroxy-4-(trifluoromethyl)isoindolin-1-one], for which the IC50 is at most 200 nM.

Consider `CCNc1cc(-c2ccc(Cl)cc2-c2nncn2C)cc(N2Cc3c(cccc3C(F)(F)F)C2=O)n1` [ACR-7, 2-(4-(4-Chloro-2-(4-methyl-4H-1,2,4-triazol-3-yl)phenyl)-6-(ethylamino)pyridin-2-yl)-4-(trifluoromethyl)isoindolin-1-one], for which the IC50 is at most 200 nM.

For `CCNc1cc(-c2c(-c3nncn3C)cnn2C)cc(N2Cc3c(cc(C(=O)N4CC[C@H](O)C4)cc3C(F)(F)F)C2=O)n1` [ACS-4, (S)-2-(6-(Ethylamino)-4-(1-methyl-4-(4-methyl-4H-1,2,4-triazol-3-yl)-1H-pyrazol-5-yl)pyridin-2-yl)-6-(3-hydroxypyrrolidine-1-carbonyl)-4-(trifluoromethyl)isoindolin-1-one], the half-maximal inhibitory concentration (IC50) is at most 200 nM.

`CCNc1cc(-c2c(-c3nncn3C)cnn2C)cc(N2Cc3c(cc(C(=O)N4CC[C@@H](O)C4)cc3C(F)(F)F)C2=O)n1` [ACT-2, (R)-2-(6-(Ethylamino)-4-(1-methyl-4-(4-methyl-4H-1,2,4-triazol-3-yl)-1H-pyrazol-5-yl)pyridin-2-yl)-6-(3-hydroxypyrrolidine-1-carbonyl)-4-(trifluoromethyl)isoindolin-1-one]: the IC50 is at most 200 nM.

On to `Cn1cnnc1-c1ccccc1-c1cc(N2Cc3c(cccc3C(F)(F)F)C2=O)nc(C2(CO)CC2)c1` [ACU-2, 2-(6-(1-(Hydroxymethyl)cyclopropyl)-4-(2-(4-methyl-4H-1,2,4-triazol-3-yl)phenyl)pyridin-2-yl)-4-(trifluoromethyl)isoindolin-1-one], for which the IC50 is at most 200 nM.

Take `CCNc1cc(-c2c(-c3nncn3C)cnn2C)cc(N2Cc3c(cc(OC4CN(C)C4)cc3C(F)(F)F)C2=O)n1` [ACV-2, 2-(6-(Ethylamino)-4-(1-methyl-4-(4-methyl-4H-1,2,4-triazol-3-yl)-1H-pyrazol-5-yl)pyridin-2-yl)-6-((1-methylazetidin-3-yl)oxy)-4-(trifluoromethyl)isoindolin-1-one]: the IC50 was at most 200 nM.
